This passage reports GI50 and TGI results from PubChem BioAssay (NCI).

SMILES strings stand for the structures.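 Test compounds were applied to cells in 96-well plates for 48 hours at 5 doses. GI50: concentration for 50% inhibition of growth. The concentration for full growth arrest is given as TGI.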

Some test systems named below: NCI/ADR-RES ovarian; RXF 393 renal; K-562 leukemia; SF-539 CNS; CCRF-CEM leukemia; NCI-H460 lung; SN12C renal; EKVX NSCLC; UACC-62 melanoma; UO-31 renal.
What all share (assay): DTP human tumour cell line panel, 48 h

Consider `O=[Se]([O-])c1ccccc1.O=[Se]([O-])c1ccccc1.[OH3+].[OH3+].[Pt+2]`, for which the GI50 (as a rule, the concentration that inhibits growth by half) was 2.8 µM in the assay with NCI/ADR-RES ovarian; 22.7 µM in the assay on RXF 393 renal; 10 µM in the assay on K-562 leukemia; 10.6 µM in the assay on SF-539 CNS; 3.15 µM in the assay on CCRF-CEM leukemia; 18.6 µM in the assay on NCI-H460 lung. The GI50 was 9.71 µM in the assay on SN12C renal, 6.34 µM with EKVX NSCLC, 13.1 µM with UACC-62 melanoma and 5.78 µM in the assay on UO-31 renal. The TGI (in general, the concentration giving total growth inhibition) was 9.89 µM with NCI/ADR-RES ovarian; 40.6 µM with RXF 393 renal; 34.6 µM in the assay on K-562 leukemia; 44.2 µM with SF-539 CNS; over 35.9 µM in the assay on CCRF-CEM leukemia; over 86.1 µM with NCI-H460 lung. Moreover, the concentration for total growth inhibition (TGI) with SN12C renal is 53.3 µM; with EKVX NSCLC, 26 µM; in the assay with UACC-62 melanoma it was 55.6 µM; in the assay with UO-31 renal, 46.2 µM.
As for `CSC1=Nc2ccccc2N(C)c2c1c(-c1ccccc1)nn2C`, the concentration for total growth inhibition (TGI) is over 100 µM in the assay with NCI/ADR-RES ovarian; over 100 µM in the assay on RXF 393 renal; 55.9 µM with K-562 leukemia; over 100 µM in the assay with SF-539 CNS; 53.1 µM in the assay with CCRF-CEM leukemia; over 100 µM with NCI-H460 lung. The TGI in the assay with SN12C renal, in the assay on EKVX NSCLC and in the assay on UACC-62 melanoma was over 100 µM each time.
Consider `N#Cc1c(NC(=S)NC(=O)c2ccccc2)nc2c(c1-c1ccccc1)CCC2`, for which the concentration for total growth inhibition (TGI) in the assay on NCI/ADR-RES ovarian, in the assay with K-562 leukemia, in the assay with SF-539 CNS, with CCRF-CEM leukemia, with NCI-H460 lung and in the assay on SN12C renal was over 100 µM each time. Besides, the concentration for total growth inhibition (TGI) in the assay on EKVX NSCLC, in the assay with UACC-62 melanoma and in the assay with UO-31 renal was over 100 µM each time.
On to `COC1OC(=O)[C@H]2O[N+]([O-])=C(C)[C@@H]12` (stereo not given in full), for which the TGI with NCI/ADR-RES ovarian, with RXF 393 renal, in the assay on K-562 leukemia, with SF-539 CNS, in the assay with CCRF-CEM leukemia and in the assay with NCI-H460 lung was over 100 µM in each case. Besides, the TGI in the assay with SN12C renal, with EKVX NSCLC, in the assay on UACC-62 melanoma and in the assay on UO-31 renal was over 100 µM each time.
`C=CC(=O)Nc1cccc(-c2nc(SC)nc(Nc3ccccc3OC)c2C#N)c1`: the GI50 with NCI/ADR-RES ovarian is 2.46 µM; in the assay on RXF 393 renal, 1.95 µM; with K-562 leukemia it was 2.03 µM; in the assay on SF-539 CNS it was 1.93 µM; with CCRF-CEM leukemia, 3.07 µM; with SN12C renal it was 2.5 µM. Besides, the figures for the GI50 in the assay on EKVX NSCLC, with UACC-62 melanoma and with UO-31 renal were 2.71 µM, 2.81 µM and 1.42 µM, respectively. Also, the TGI in the assay on NCI/ADR-RES ovarian was 6.99 µM; in the assay on RXF 393 renal, 5.42 µM; with K-562 leukemia, 5.62 µM; in the assay with SF-539 CNS it was 4.53 µM; in the assay on CCRF-CEM leukemia, over 100 µM; in the assay with SN12C renal, 8.15 µM. In addition, the TGI in the assay on EKVX NSCLC worked out at 10.4 µM; in the assay on UACC-62 melanoma it was 14.6 µM; with UO-31 renal, 3.18 µM.
As for `Nc1n[nH]c(=O)[nH]1`, the concentration for total growth inhibition (TGI) in the assay with NCI/ADR-RES ovarian, in the assay on RXF 393 renal, in the assay on K-562 leukemia, in the assay with SF-539 CNS, with CCRF-CEM leukemia and with NCI-H460 lung was over 100 µM throughout. In addition, the total growth inhibition concentration (TGI) in the assay with SN12C renal, in the assay on EKVX NSCLC, in the assay on UACC-62 melanoma and with UO-31 renal was over 100 µM throughout.
In the case of `O=C1CC(=O)N(c2ccccc2)N1/C(=C/c1ccccc1)c1ccccc1`, the TGI in the assay on NCI/ADR-RES ovarian is 61.5 µM; in the assay with RXF 393 renal, 36.5 µM; in the assay on K-562 leukemia, over 100 µM; in the assay on CCRF-CEM leukemia, 3.57 µM; in the assay with NCI-H460 lung, 39 µM; in the assay on SN12C renal, 44.8 µM. Moreover, the TGI is over 100 µM in the assay on EKVX NSCLC, 37.3 µM with UACC-62 melanoma and 29.2 µM with UO-31 renal.
